The source of these data is patent US11759451B2, “Therapeutic potential of glycopyrrolate and mexiletine for nervous system injury” (City University of Hong Kong, priority 2020, dated 2023).

Test [1] has as its system axotomized dorsal root ganglion (DRG) neurons. As to the kind of experiment: neurite outgrowth assay in primary cultures of axotomized DRG neurons. To be noted: vs 0.1% DMSO solvent control; for average total neurite length (neurite outgrowth): glycopyrrolate 5, 10 and 100 μM or mexiletine 10, 50 and 100 μM added 1 h after plating, 17 h growth; for cell survival of DRG neurons: same cultures, 17 h. Type of test: cell-based, adult C57BL/6 mice. How it is done:
Primary cultures of DRG neurons were prepared from adult C57BL/6 mice, and plated onto a poly-D-lysine and laminin-coated 8-well chamber. Glycopyrrolate and mexiletine were added into the cultured DRG neurons at various concentrations as indicated one hour after plating. 0.1% DMSO served as solvent control. The cultures were allowed to grow for 17 h. After fixation, the DRG neurons were immunostained with anti-βIII-tubulin primary antibodies highlighting the cell bodies of DRG neurons and their adjacent neurites for neurite outgrowth assay. (A) Average total neurite length was quantified using automated WIS-NeuroMath 5 software. […] Scale bar: 500 μm.
In the current study, the intrinsic growth capacity of peripheral neurons was first assessed, which is a critical determinant for successful axon regeneration after injury, after treating the neurons with glycopyrrolate and mexiletine. Primary culture of adult dorsal root ganglion (DRG) neurons is a widely used in vitro models to assess cues that could promote axonal outgrowth. Primary DRG neurons were prepared from adult C57BL/6 mice (8-12 weeks old). DRG neurons were dissected out, mildly digested with a solution of collagenase and dispase II (Roche Diagnostics), trypsinized and mechanically dissociated into single cell suspension using flame-polished Pasteur pipettes with three different diameters. Two thousand DRG neurons were plated onto an 8-well chamber slide pre-coated with poly-D-lysine and laminin (Sigma Aldrich), and cultured in full Neurobasal medium (Gibco) supplemented with B27, 200 mM L-glutamine, penicillin-streptomycin, 50 ng/ml NGF (Gibco), 10 μM Ara-C and 2 ng/ml GDNF (Gibco). Glycopyrrolate (5, 10 and 100 μM) or mexiletine (10, 50 and 100 μM) was added into the cultured neurons 1 hour after plating, and the cultures were allowed to grow for 17 hours.
After 17 hours of incubation, the cultures were fixed with 4% paraformaldehyde (PFA), blocked with 0.5% bovine serum albumin (BSA)/0.1% Triton X-100 in PBS for 1 hour at room temperature, and incubated with anti-β III-tubulin primary antibodies (1:800, Sigma Aldrich) for overnight at 4° C. After washing with PBS, the cultures were incubated with Alexa Fluor 488-conjugated secondary antibodies (1:300, Molecular Probes) for 1 hour at room temperature. To assess the neurite outgrowth of axtomized DRG neurons after treatment of glycopyrrolate or mexiletine, 30 non-overlapping images were taken at 10× magnifications using Nikon Ni-E microscope equipped with a motorized stage. Total neurite length of individual DRG neurons from each treatment condition were measured by automated WIS-NeuroMath software (Weizmann Institute of Science). The total neurite length of the neurons was averaged from at least 250 neurons per condition. […]

The subject of test [2] is sciatic nerve crush injury. As to the kind of experiment: sciatic nerve pinch test after sciatic nerve crush injury. It counts as in vivo, adult male C57BL/6 mice. Conditions: for increase of the most distal axonal regrowth (sciatic nerve pinch test): i.p. glycopyrrolate 2 mg/kg or mexiletine 10 mg/kg for 3 consecutive days after injury, 72 hours after crush, n=5-6 per group; for in vivo axon regeneration after sciatic nerve crush injury (pinch test), in words: i.p. glycopyrrolate 2 mg/kg or mexiletine 10 mg/kg, 3 days after injury. How it is done: (§1) (A) Experimental paradigm for sciatic nerve pinch test. Sciatic nerve crush injury was performed on the left sciatic nerve of adult male C57BL/6 mice. We performed nerve pinch test in adult mice injected intraperitoneally with glycopyrrolate (2 mg/kg) or mexiletine (10 mg/kg) for 3 consecutive days after injury. […] Scale bar: 100 μm. Mean±SEM; *P<0.05, Student's t-test.
(§2) In the current project, a sciatic nerve crush injury was used as an in vivo animal model for peripheral nerve injury. Adult male C57BL/6 mice (8-12 weeks old) were used for all experiments. All mouse husbandry and euthanasia were in compliance with the Institutional Animal Care and Use Committee (IACUC) guidelines. Surgical procedures performed were in accordance with protocols approved by the City University of Hong Kong Animal Research Ethics Sub-Committee and Department of Health, Hong Kong SAR. Under anesthesia, the left sciatic nerve was exposed, and crushed with 5/45 smooth forceps (Fine Science Tools) for 15 seconds at the level of external rotator muscles, distal to the sciatic notch after separation from the surrounding connective tissue (FIG. 2).
(§3) Glycopyrrolate or mexiletine was first dissolved in 0.9% saline, and injected intraperitoneally immediately after sciatic nerve crush injury for 3 consecutive days at 2 mg/kg and 10 mg/kg, respectively (FIGS. 3A and B).
(§4) The extent of axon regeneration was evaluated using sciatic nerve pinch test, and verified by quantifications of GAP-43-positive regenerating axonal fibres 72 hours after sciatic nerve crush injury.
Sciatic nerve pinch test was performed on the ipsilateral nerves 72 hours after sciatic nerve crush injury. The left sciatic nerve was first exposed to mid-thigh level under deep anaesthesia (i.e. 2.5% isoflurane). Under light anaesthesia (i.e. 1% isoflurane), a series of pinches were applied from the most distal part of the nerve (i.e. trifurcation), moving proximally towards the crushed site using smooth forceps (Fine Science Tools). The distance (in mm) representing the extent of axonal regrowth was recorded from the crushed site to the most distal point of the nerve where initial withdrawal response was observed after pinching (FIGS. 4A and C).

Test [3] deals with sciatic nerve crush injury. To be noted: 72 hours after crush; for increase in number of GAP43-positive regenerating axons: i.p. glycopyrrolate 2 mg/kg or mexiletine 10 mg/kg for 3 days, 4 mm distal to the crushed site, n=3 per group; for GAP-43-positive regenerating axonal fibres at 4 mm distal to the crushed site, in words: i.p. glycopyrrolate 2 mg/kg or mexiletine 10 mg/kg. The protocol: as §1, §2, §3, §4

For test [4], the system named is M1-M3 mAChRs. Conditions: background description of the drug; cited from earlier work.

“Also recorded” adds a separate entry of the source.

As to `Cc1cccc(C)c1OCC(C)N` (stereo not shown) [mexiletine], in test [1], the “average total neurite length (neurite outgrowth)” value is on record as “induced robust neurite extension; also recorded: induce substantial neurite outgrowth” and the “cell survival of DRG neurons” value is “did not exhibit any effects on cell survival; also recorded: without exerting any neuronal survival effects”. Also, in test [2], the “increase of the most distal axonal regrowth (sciatic nerve pinch test)” value amounted to 59% and the “in vivo axon regeneration after sciatic nerve crush injury (pinch test), in words” value was “markedly accelerated in vivo axon regeneration; also recorded: significantly enhanced axon regeneration”. For the same compound, in test [3], the “increase in number of GAP43-positive regenerating axons” value came out at 67% and the “GAP-43-positive regenerating axonal fibres at 4 mm distal to the crushed site, in words” value is given as “More GAP-43-positive regenerating axonal fiber were observed”.
For `C[N+]1(C)CCC(OC(=O)C(O)(c2ccccc2)C2CCCC2)C1` (stereo not shown) [glycopyrrolate], in test [1], the “average total neurite length (neurite outgrowth)” value is reported as “induced robust neurite extension; also recorded: induce substantial neurite outgrowth” and the “cell survival of DRG neurons” value was “did not exhibit any effects on cell survival; also recorded: without exerting any neuronal survival effects”. In addition, in test [2], the “increase of the most distal axonal regrowth (sciatic nerve pinch test)” value came out at 61% and the “in vivo axon regeneration after sciatic nerve crush injury (pinch test), in words” value was “markedly accelerated in vivo axon regeneration; also recorded: significantly enhanced axon regeneration”. For the same compound, in test [3], the “increase in number of GAP43-positive regenerating axons” value is listed as 73% and the “GAP-43-positive regenerating axonal fibres at 4 mm distal to the crushed site, in words” value is “More GAP-43-positive regenerating axonal fiber were observed”. For the same compound, in test [4], the “selectivity among mAChR subtypes” value was “no selectivity to M1-M3 mAChRs”.
